Key:
HL-60(TB) = test: NCI SRB screen, HL-60(TB); type: cell-based; conditions: Homo sapiens, Leukemia, 48 h
HT29 = test: NCI SRB screen, HT29; conditions: Homo sapiens, HT-29, 48 h, read-out: GI50 values
KM12 = test: NCI SRB screen, KM12; conditions: Homo sapiens, KM12, 48 h, read-out: GI50 values
A498 = test: NCI SRB screen, A498; conditions: Homo sapiens, A498, 48 h, read-out: GI50 values
ACHN = test: NCI SRB screen, ACHN; conditions: Homo sapiens, 48 h, read-out: GI50 values
K-562 = test: NCI SRB screen, K-562; conditions: Homo sapiens, K562, 48 h, read-out: GI50 values
SN12C = test: NCI SRB screen, SN12C; conditions: Homo sapiens, 48 h, read-out: GI50 values
UO-31 = test: NCI SRB screen, UO-31; conditions: Homo sapiens, UO-31, 48 h, read-out: GI50 values
MOLT-4 = test: NCI SRB screen, MOLT-4; conditions: Homo sapiens, MOLT-4, 48 h, read-out: GI50 values
HOP-62 = test: NCI SRB screen, HOP-62; conditions: Homo sapiens, HOP-62, 48 h, read-out: GI50 values
SW-620 = test: NCI SRB screen, SW-620; conditions: Homo sapiens, SW-620, 48 h, read-out: GI50 values
SF-295 = test: NCI SRB screen, SF-295; conditions: Homo sapiens, SF-295, 48 h, read-out: GI50 values
SF-539 = test: NCI SRB screen, SF-539; conditions: Homo sapiens, 48 h, read-out: GI50 values
IGROV1 = test: NCI SRB screen, IGROV1; conditions: Homo sapiens, IGROV-1, 48 h, read-out: GI50 values
CAKI-1 = test: NCI SRB screen, CAKI-1; conditions: Homo sapiens, CAKI-1, 48 h, read-out: GI50 values
DU-145 = test: NCI SRB screen, DU-145; conditions: Homo sapiens, DU-145, 48 h, read-out: GI50 values
BT-549 = test: NCI SRB screen, BT-549; conditions: Homo sapiens, BT-549, 48 h, read-out: GI50 values
NCI-H23 = test: NCI SRB screen, NCI-H23; conditions: Homo sapiens, NCI-H23, 48 h, read-out: GI50 values
OVCAR-3 = test: NCI SRB screen, OVCAR-3; conditions: Homo sapiens, OVCAR-3, 48 h, read-out: GI50 values
OVCAR-4 = test: NCI SRB screen, OVCAR-4; conditions: Homo sapiens, OVCAR-4, 48 h, read-out: GI50 values
OVCAR-5 = test: NCI SRB screen, OVCAR-5; conditions: Homo sapiens, OVCAR-5, 48 h, read-out: GI50 values
RXF 393 = test: NCI SRB screen, RXF 393; conditions: Homo sapiens, RXF 393, 48 h, read-out: GI50 values
HS 578T = test: NCI SRB screen, HS 578T; conditions: Homo sapiens, 48 h, read-out: GI50 values
CCRF-CEM = test: NCI SRB screen, CCRF-CEM; conditions: Homo sapiens, 48 h, read-out: GI50 values
NCI-H460 = test: NCI SRB screen, NCI-H460; conditions: Homo sapiens, NCI-H460, 48 h, read-out: GI50 values
COLO-205 = test: NCI SRB screen, COLO-205; conditions: Homo sapiens, COLO 205, 48 h, read-out: GI50 values
HCC-2998 = test: NCI SRB screen, HCC-2998; conditions: Homo sapiens, HCC 2998, 48 h, read-out: GI50 values
A549/ATCC = test: NCI SRB screen, A549/ATCC; conditions: Homo sapiens, A549, 48 h, read-out: GI50 values
SK-MEL-28 = test: NCI SRB screen, SK-MEL-28; conditions: Homo sapiens, SK-MEL-28, 48 h, read-out: GI50 values
MDA-MB-231/ATCC = test: NCI SRB screen, MDA-MB-231/ATCC; conditions: Homo sapiens, MDA-MB-231, 48 h, read-out: GI50 values
CNS cancer cell lines = test: NCI SRB screen, CNS panel average; conditions: Homo sapiens, 48 h, read-out: Log10 GI50 (converted)
[1] = test system: Prostate cancer cell lines; test: NCI SRB screen, Prostate panel average; conditions: Homo sapiens, 48 h, read-out: Log10 GI50 (converted)
Breast Cancer cell lines = test: NCI SRB screen, Breast Cancer panel average; conditions: Homo sapiens, 48 h, read-out: Log10 GI50 (converted)
[2] = test system: Non-small-cell lung cancer cell lines; test: NCI SRB screen, Non-small-cell lung panel average; conditions: Homo sapiens, 48 h, read-out: Log10 GI50 (converted)

COc1cc(-c2cc(-c3nc4ccccc4[nH]3)[nH]n2)cc(OC)c1OC [6f, 2-(3-(3,4,5-trimethoxyphenyl)-1H-pyrazol-5-yl)-1H-benzo[d]imidazole]
GI50 (HL-60(TB)): 2540 nM
GI50 (HT29): 7160 nM
GI50 (KM12): 3150 nM
GI50 (A498): 1510 nM
GI50 (ACHN): 2770 nM
GI50 (K-562): 3080 nM
GI50 (SN12C): 3910 nM
GI50 (UO-31): 2210 nM
GI50 (MOLT-4): 2130 nM
GI50 (HOP-62): 3540 nM
GI50 (SW-620): 7730 nM
GI50 (SF-295): 3130 nM
GI50 (SF-539): 5110 nM
GI50 (IGROV1): 2340 nM
GI50 (CAKI-1): 2240 nM
GI50 (DU-145): 3900 nM
GI50 (BT-549): 1800 nM
GI50 (NCI-H23): 2260 nM
GI50 (OVCAR-3): 4000 nM
GI50 (OVCAR-4): 1260 nM
GI50 (OVCAR-5): 1300 nM
GI50 (RXF 393): 1770 nM
GI50 (HS 578T): 6890 nM
GI50 (CCRF-CEM): 2120 nM
GI50 (NCI-H460): 3640 nM
GI50 (COLO-205): 3980 nM
GI50 (HCC-2998): 7100 nM
GI50 (A549/ATCC): 2430 nM
GI50 (SK-MEL-28): 2720 nM
GI50 (MDA-MB-231/ATCC): 3220 nM
GI50 (CNS cancer cell lines): 5250 nM
GI50 [1]: 2880 nM
GI50 (Breast Cancer cell lines): 2240 nM
GI50 [2]: 2400 nM

c1ccc2[nH]c(-c3cc(-c4ccc5c(c4)OCO5)n[nH]3)nc2c1 [6g, 2-(3-(benzo[d][1,3]dioxol-5-yl)-1H-pyrazol-5-yl)-1H-benzo[d]imidazole]
GI50 (HL-60(TB)): 2270 nM
GI50 (HT29): 3660 nM
GI50 (KM12): 1750 nM
GI50 (A498): 1700 nM
GI50 (ACHN): 4330 nM
GI50 (K-562): 3830 nM
GI50 (SN12C): 3730 nM
GI50 (UO-31): 3980 nM
GI50 (MOLT-4): 2680 nM
GI50 (HOP-62): 8460 nM
GI50 (SW-620): 5870 nM
GI50 (SF-295): 3240 nM
GI50 (SF-539): 2710 nM
GI50 (IGROV1): 3660 nM
GI50 (CAKI-1): 2740 nM
GI50 (DU-145): 7270 nM
GI50 (BT-549): 2120 nM
GI50 (NCI-H23): 4470 nM
GI50 (OVCAR-3): 3210 nM
GI50 (OVCAR-4): 2160 nM
GI50 (OVCAR-5): 1490 nM
GI50 (RXF 393): 2360 nM
GI50 (HS 578T): 3800 nM
GI50 (CCRF-CEM): 2520 nM
GI50 (NCI-H460): 4570 nM
GI50 (COLO-205): 4780 nM
GI50 (HCC-2998): 3740 nM
GI50 (A549/ATCC): 4230 nM
GI50 (SK-MEL-28): 4850 nM
GI50 (MDA-MB-231/ATCC): 4120 nM
GI50 (CNS cancer cell lines): 4270 nM
GI50 [1]: 5130 nM
GI50 (Breast Cancer cell lines): 3390 nM
GI50 [2]: 4570 nM

Fc1ccc2[nH]c(-c3cc(-c4ccc5c(c4)OCO5)n[nH]3)nc2c1 [7g, 2-(3-(benzo[d][1,3]dioxol-5-yl)-1H-pyrazol-5-yl)-5-fluoro-1H-benzo[d]imidazole]
GI50 (HL-60(TB)): 2740 nM
GI50 (HT29): 5770 nM
GI50 (KM12): 2960 nM
GI50 (A498): 4660 nM
GI50 (ACHN): 3640 nM
GI50 (K-562): 4810 nM
GI50 (SN12C): 4950 nM
GI50 (UO-31): 2930 nM
GI50 (MOLT-4): 3140 nM
GI50 (HOP-62): 8540 nM
GI50 (SW-620): 9340 nM
GI50 (SF-295): 4200 nM
GI50 (SF-539): 2900 nM
GI50 (IGROV1): 3670 nM
GI50 (CAKI-1): 2710 nM
GI50 (DU-145): 8240 nM
GI50 (BT-549): 2160 nM
GI50 (NCI-H23): 8840 nM
GI50 (OVCAR-3): 5320 nM
GI50 (OVCAR-4): 1370 nM
GI50 (OVCAR-5): 6440 nM
GI50 (RXF 393): 3020 nM
GI50 (HS 578T): 9530 nM
GI50 (CCRF-CEM): 2650 nM
GI50 (NCI-H460): 6060 nM
GI50 (COLO-205): 8110 nM
GI50 (HCC-2998): 5370 nM
GI50 (A549/ATCC): 3530 nM
GI50 (SK-MEL-28): 8870 nM
GI50 (MDA-MB-231/ATCC): 2220 nM
GI50 (CNS cancer cell lines): 6310 nM
GI50 [1]: 5620 nM
GI50 (Breast Cancer cell lines): 3630 nM
GI50 [2]: 5370 nM

COc1cc(-c2cc(-c3nc4cc(Cl)ccc4[nH]3)[nH]n2)cc(OC)c1OC [8f, 5-chloro-2-(3-(3,4,5-trimethoxyphenyl)-1H-pyrazol-5-yl)-1H-benzo[d]imidazole]
GI50 (HL-60(TB)): 2490 nM
GI50 (HT29): 4140 nM
GI50 (KM12): 3450 nM
GI50 (A498): 2100 nM
GI50 (ACHN): 2960 nM
GI50 (K-562): 3040 nM
GI50 (SN12C): 3060 nM
GI50 (UO-31): 2640 nM
GI50 (MOLT-4): 2020 nM
GI50 (HOP-62): 3110 nM
GI50 (SW-620): 4990 nM
GI50 (SF-295): 2350 nM
GI50 (SF-539): 4660 nM
GI50 (IGROV1): 3420 nM
GI50 (CAKI-1): 2800 nM
GI50 (DU-145): 3270 nM
GI50 (BT-549): 2540 nM
GI50 (NCI-H23): 2730 nM
GI50 (OVCAR-3): 3500 nM
GI50 (OVCAR-4): 1380 nM
GI50 (OVCAR-5): 1210 nM
GI50 (RXF 393): 3260 nM
GI50 (HS 578T): 3580 nM
GI50 (CCRF-CEM): 2480 nM
GI50 (NCI-H460): 3650 nM
GI50 (COLO-205): 3180 nM
GI50 (HCC-2998): 5980 nM
GI50 (A549/ATCC): 2960 nM
GI50 (SK-MEL-28): 2420 nM
GI50 (MDA-MB-231/ATCC): 3940 nM
GI50 (CNS cancer cell lines): 3720 nM
GI50 [1]: 2880 nM
GI50 (Breast Cancer cell lines): 2570 nM
GI50 [2]: 2750 nM

COc1ccc2[nH]c(-c3cc(-c4cc(OC)c(OC)c(OC)c4)n[nH]3)nc2c1 [9f, 5-methoxy-2-(3-(3,4,5-trimethoxyphenyl)-1H-pyrazol-5-yl)-1H-benzo[d]imidazole]
GI50 (HL-60(TB)): 1690 nM
GI50 (HT29): 2760 nM
GI50 (KM12): 1700 nM
GI50 (A498): 2230 nM
GI50 (ACHN): 2630 nM
GI50 (K-562): 2010 nM
GI50 (SN12C): 2060 nM
GI50 (UO-31): 1570 nM
GI50 (MOLT-4): 730 nM
GI50 (HOP-62): 2020 nM
GI50 (SW-620): 2890 nM
GI50 (SF-295): 1620 nM
GI50 (SF-539): 2420 nM
GI50 (IGROV1): 1900 nM
GI50 (CAKI-1): 1790 nM
GI50 (DU-145): 2290 nM
GI50 (BT-549): 890 nM
GI50 (NCI-H23): 1340 nM
GI50 (OVCAR-3): 2050 nM
GI50 (OVCAR-4): 1240 nM
GI50 (OVCAR-5): 3030 nM
GI50 (RXF 393): 2490 nM
GI50 (HS 578T): 2890 nM
GI50 (CCRF-CEM): 1290 nM
GI50 (NCI-H460): 2640 nM
GI50 (COLO-205): 1610 nM
GI50 (HCC-2998): 3030 nM
GI50 (A549/ATCC): 1630 nM
GI50 (SK-MEL-28): 1900 nM
GI50 (MDA-MB-231/ATCC): 2870 nM
GI50 (CNS cancer cell lines): 2450 nM
GI50 [1]: 1550 nM
GI50 (Breast Cancer cell lines): 1150 nM
GI50 [2]: 1480 nM

— US9951049B2, “Pyrazole linked benzimidazole conjugates and a process for preparation thereof” (Council of Scientific & Industrial Reseach, priority 2014, dated 2018)
